Assay results published in article PMC7248712 (2020).

What was measured:
[1] = tested on: poly (dAdT)2 (DNA, polymer) AT; assay: fluorimetric titration; settings: Na+ (sodium cacodylate, I = 0.05 M); pH 7.0, 1 µM compound; up to 100-fold excess of polynucleotide bases
[2] = tested on: poly A-poly U (RNA, polymer) A/U; assay: fluorimetric titration; settings: Na+ (sodium cacodylate, I = 0.05 M); pH 7.0, 1 µM compound; up to 100-fold excess of polynucleotide bases
poly G (RNA, polymer) G = assay: fluorimetric titration; settings: Na+ (sodium cacodylate, I = 0.05 M); pH 7.0, 1 µM compound; up to 100-fold excess of polynucleotide bases
poly A (RNA, polymer) A [3] = assay: fluorimetric titration; settings: Na+ (sodium cacodylate, I = 0.05 M); pH 7.0, 1 µM compound; up to 100-fold excess of polynucleotide bases
poly C (RNA, polymer) C = assay: fluorimetric titration; settings: Na+ (sodium cacodylate, I = 0.05 M), pH 7.0, 1 µM compound
poly U (RNA, polymer) U [4] = assay: fluorimetric titration; settings: Na+ (sodium cacodylate, I = 0.05 M); pH 7.0, 1 µM compound; up to 100-fold excess of polynucleotide bases
[5] = tested on: poly (dAdT)2 (DNA, polymer) AT; assay: fluorimetric titration, Scatchard (McGhee-von Hippel) fit; settings: Na+ (sodium cacodylate, I = 0.05 M), pH 7.0, room temperature, 1 µM compound, n fixed 0.2 per polynucleotide base
poly A (RNA, polymer) A [6] = assay: as above; settings: Na+ (sodium cacodylate, I = 0.05 M), pH 7.0, 1 µM compound, n fixed 0.5 per polynucleotide base
poly U (RNA, polymer) U [7] = assay: as above; settings: Na+ (sodium cacodylate, I = 0.05 M), pH 7.0, 1 µM compound, n fixed 0.5 per polynucleotide base
[8] = tested on: poly A-poly U (RNA, polymer) A/U; assay: as above; settings: Na+ (sodium cacodylate, I = 0.05 M), pH 7.0, room temperature, 1 µM compound, n fixed 0.2 per polynucleotide base

## NCCCC[C@@H](C(=O)O)n1cc(Cn2cc3c4c(ncnc42)Nc2ncccc2-3)nn1
[1]
  binding: no
[2]
  binding: no
Poly G (RNA, polymer) G
  binding: no
Poly A (RNA, polymer) A [3]
  binding: no
Poly C (RNA, polymer) C; up to 100-fold excess of polynucleotide bases
  binding: no
Poly U (RNA, polymer) U [4]
  binding: no

## COC(=O)[C@H](CCCCNC(=O)CCCc1ccc2ccc3cccc4ccc1c2c34)n1cc(Cn2cc3c4c(ncnc42)Nc2ncccc2-3)nn1
Poly C (RNA, polymer) C; emission change too small to fit, authors state binding not supported
  binding: no
[5]
  log Ks: 5.7
Poly A (RNA, polymer) A [6]
  log Ks: 5.2
Poly U (RNA, polymer) U [7]
  log Ks: 4.7

## COC(=O)[C@H](CCCCNC(=O)c1ccc2ccc3cccc4ccc1c2c34)n1cc(Cn2cc3c4c(ncnc42)Nc2ncccc2-3)nn1
[5]
  log Ks: 5.0
[8]
  log Ks: 5.5
